Results as given in ChEMBL document CHEMBL1201862, “PubChem BioAssay data set” (2004).
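Results reflect a 48-hour exposure of cells in 96-well plates to compound at five concentrations. Here, GI50 denotes the concentration required for 50% inhibition of growth.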 Calls of active or inactive are those of the source. Rule as the data show it: active = GI50 up to about 1.1 µM and inactive = higher. Residues, ends and D or L forms follow the SMILES beside them. *: point of attachment. Boc = CC(C)(C)OC(=O)*

What was measured:
Experiment in all cases: DTP human tumour cell line panel, 48 h
UO-31 = tested on: UO-31
OVCAR-3 = tested on: OVCAR-3
UACC-257 = tested on: UACC-257
HOP-62 = tested on: HOP-62
HL-60 = tested on: HL-60
CAKI-1 = tested on: CAKI-1
SNB-75 = tested on: SNB-75
KM12 = tested on: KM12
K562 = tested on: K562
IGROV-1 = tested on: IGROV-1
MCF7 = tested on: MCF7
UACC-62 = tested on: UACC-62
SN12C = tested on: SN12C
M14 = tested on: M14
SK-MEL-5 = tested on: SK-MEL-5
OVCAR-5 = tested on: OVCAR-5
HCC 2998 = tested on: HCC 2998
ACHN = tested on: ACHN
SF-539 = tested on: SF-539
HCT-116 = tested on: HCT-116

Measured: GI50

Fc1ccc(C(OCCN2CCN(CCCc3ccccc3)CC2)c2ccc(F)cc2)cc1
inactive: UO-31 2.73 µM | OVCAR-3 4.15 µM | UACC-257 2.81 µM | HOP-62 5.32 µM | HL-60 4.2 µM | CAKI-1 4.06 µM | SNB-75 4.8 µM | KM12 4.19 µM | K562 3.05 µM | IGROV-1 10.4 µM | MCF7 4.59 µM | UACC-62 9.08 µM | SN12C 4.11 µM | M14 3.12 µM | SK-MEL-5 3.34 µM | OVCAR-5 4.5 µM | HCC 2998 3.79 µM | ACHN 5.82 µM

O=C1c2ccccc2C(=O)c2c1sc1nc3ccccc3n21
inactive: UO-31 2.01 µM | OVCAR-3 2.86 µM | UACC-257 1.88 µM | HL-60 3.8 µM | CAKI-1 1.99 µM | SNB-75 13.1 µM | KM12 1.83 µM | K562 2.03 µM | IGROV-1 2.44 µM | MCF7 1.86 µM | UACC-62 1.87 µM | SN12C 1.52 µM | SF-539 1.81 µM | M14 1.73 µM | SK-MEL-5 16.5 µM | OVCAR-5 2.45 µM | HCC 2998 1.73 µM | HCT-116 1.7 µM | ACHN 2.23 µM

O=c1cnnc2sc(=S)[nH]n12
inactive: UO-31 22.2 µM | OVCAR-3 32.4 µM | UACC-257 15.9 µM | HOP-62 2.61 µM | HL-60 16.6 µM | CAKI-1 21.9 µM | KM12 > 100 µM | K562 15.6 µM | IGROV-1 24 µM | MCF7 14.7 µM | UACC-62 18.2 µM | SF-539 > 100 µM | M14 84.1 µM | SK-MEL-5 20.1 µM | OVCAR-5 > 100 µM | HCC 2998 44.5 µM | HCT-116 > 100 µM | ACHN 53.5 µM

CC(C)(C)OC(=O)NC(Cc1ccccc1)C(=O)N[C@H]1c2ccsc2/C(=N/O)[C@H]1O (some centres not stated)
inactive: UO-31 > 100 µM | OVCAR-3 > 100 µM | UACC-257 > 100 µM | HOP-62 > 100 µM | HL-60 86.1 µM | CAKI-1 > 100 µM | K562 > 100 µM | IGROV-1 > 100 µM | MCF7 > 100 µM | UACC-62 > 100 µM | SN12C > 100 µM | SF-539 > 100 µM | M14 > 100 µM | SK-MEL-5 > 100 µM | OVCAR-5 > 100 µM | HCC 2998 > 100 µM | HCT-116 > 100 µM

CC(C)C(=O)Nc1cc(C(F)(F)F)ccc1[N+](=O)[O-]
inactive: UO-31 > 100 µM | OVCAR-3 > 100 µM | UACC-257 > 100 µM | HOP-62 > 100 µM | HL-60 94 µM | CAKI-1 > 100 µM | KM12 > 100 µM | K562 50.9 µM | IGROV-1 > 100 µM | MCF7 > 100 µM | UACC-62 > 100 µM | SN12C > 100 µM | SF-539 > 100 µM | M14 > 100 µM | SK-MEL-5 > 100 µM | OVCAR-5 > 100 µM | HCC 2998 > 100 µM | HCT-116 > 100 µM | ACHN > 100 µM

O=C1OC(=O)c2c1cc1cc3c(cc1c2-c1ccc2c(c1)OCO2)OCO3
inactive: UO-31 > 100 µM | OVCAR-3 > 100 µM | UACC-257 > 100 µM | HL-60 > 100 µM | CAKI-1 > 100 µM | SNB-75 > 100 µM | KM12 > 100 µM | K562 > 100 µM | IGROV-1 > 100 µM | MCF7 > 100 µM | UACC-62 > 100 µM | SN12C > 100 µM | SF-539 > 100 µM | M14 > 100 µM | SK-MEL-5 > 100 µM | OVCAR-5 > 100 µM | HCC 2998 > 100 µM | HCT-116 > 100 µM | ACHN > 100 µM

O=C1O/C(=C\c2ccc(O)cc2)C(c2ccc(O)c(Cl)c2)=C1Br
inactive: UO-31 14.6 µM | OVCAR-3 7 µM | UACC-257 13.9 µM | HOP-62 14.2 µM | HL-60 13.9 µM | CAKI-1 15.4 µM | KM12 12.4 µM | K562 2.25 µM | IGROV-1 12 µM | MCF7 16.7 µM | UACC-62 13.7 µM | SN12C 15.6 µM | SF-539 12 µM | M14 13.6 µM | SK-MEL-5 12.7 µM | OVCAR-5 18.2 µM | HCC 2998 11.3 µM | HCT-116 11.5 µM | ACHN 13.2 µM

Cc1ccc2nc(NC(=O)/C(Cc3nc4ccc(Cl)cc4nc3O)=N\NC(C)(C)C)sc2c1
inactive: UO-31 59.6 µM | OVCAR-3 > 100 µM | UACC-257 > 100 µM | HL-60 > 100 µM | CAKI-1 41.8 µM | SNB-75 15.5 µM | KM12 > 100 µM | K562 > 100 µM | MCF7 > 100 µM | UACC-62 > 100 µM | SN12C > 100 µM | SF-539 > 100 µM | M14 > 100 µM | SK-MEL-5 > 10 µM | OVCAR-5 > 100 µM | HCC 2998 > 100 µM | HCT-116 > 100 µM | ACHN > 100 µM

Cc1cc(C)c(S(=O)(=O)N(CCCCCCN)OCCCN)c(C)c1
inactive: UO-31 19.5 µM | OVCAR-3 19.9 µM | UACC-257 15.8 µM | HOP-62 20.9 µM | HL-60 12.3 µM | SNB-75 10.3 µM | KM12 15.1 µM | K562 26.4 µM | IGROV-1 13.9 µM | MCF7 19.8 µM | UACC-62 19.5 µM | SN12C 19.6 µM | SF-539 18.2 µM | M14 20.9 µM | SK-MEL-5 19.2 µM | OVCAR-5 21.7 µM | HCC 2998 16.6 µM | HCT-116 17.5 µM | ACHN 17.2 µM

COc1ccc(-c2nc(-c3cnccn3)n(Cc3ccccc3)n2)cc1
inactive: UO-31 > 100 µM | OVCAR-3 > 100 µM | UACC-257 > 100 µM | HOP-62 > 100 µM | HL-60 > 100 µM | SNB-75 47.9 µM | KM12 > 100 µM | K562 > 100 µM | IGROV-1 > 100 µM | MCF7 > 100 µM | UACC-62 > 100 µM | SN12C > 100 µM | SF-539 > 100 µM | M14 > 100 µM | SK-MEL-5 > 100 µM | OVCAR-5 > 100 µM | HCC 2998 > 100 µM | HCT-116 > 100 µM

Nc1cc(O)c2cc(/N=N/c3ccc(/N=N/c4ccc(/N=N/c5ccc6cc(S(=O)(=O)O)cc(S(=O)(=O)O)c6c5)c5ccccc45)c4cc(S(=O)(=O)O)ccc34)c(S(=O)(=O)O)cc2c1
inactive: UO-31 85.9 µM | OVCAR-3 67.6 µM | UACC-257 > 100 µM | HOP-62 > 100 µM | HL-60 42.3 µM | SNB-75 49.1 µM | KM12 > 100 µM | K562 > 31.6 µM | IGROV-1 > 100 µM | MCF7 > 100 µM | UACC-62 > 100 µM | SN12C > 100 µM | SF-539 > 100 µM | SK-MEL-5 > 100 µM | OVCAR-5 > 100 µM | HCC 2998 > 100 µM | HCT-116 > 100 µM

CC1CCC2C(C(=O)O[C@H]3C4CCO[C@@H](OC5OC(CO)C(O)C(O)C5O)C4[C@@]4(CO)O[C@@H]34)=CO[C@@H](OC3OC(CO)C(O)C(O)C3O)C12 (some centres not stated)
inactive: UO-31 > 10 µM | OVCAR-3 > 10 µM | UACC-257 > 10 µM | HOP-62 > 10 µM | HL-60 > 10 µM | SNB-75 > 10 µM | KM12 > 10 µM | K562 > 10 µM | IGROV-1 > 10 µM | MCF7 > 10 µM | UACC-62 > 10 µM | SN12C > 10 µM | SF-539 > 10 µM | M14 > 10 µM | SK-MEL-5 > 10 µM | OVCAR-5 > 10 µM | HCC 2998 > 10 µM | HCT-116 > 10 µM | ACHN > 10 µM

COC(=O)C1OC2(CCCC3CC32)O[C@H]1C(=O)OC (some centres not stated)
inactive: UO-31 > 100 µM | OVCAR-3 > 100 µM | UACC-257 > 100 µM | HOP-62 > 100 µM | HL-60 > 100 µM | CAKI-1 > 100 µM | SNB-75 > 100 µM | KM12 > 100 µM | K562 > 100 µM | IGROV-1 > 100 µM | MCF7 > 100 µM | UACC-62 > 100 µM | SN12C > 100 µM | SF-539 > 100 µM | M14 > 100 µM | OVCAR-5 > 100 µM | HCC 2998 > 100 µM | HCT-116 > 100 µM | ACHN > 100 µM

CC(NC(=O)C(NC(=O)OC(C)(C)C)C(C)C)C(=O)N1CCCC1C(=O)NCC(=O)NC(C(=O)NCC(=O)O)C(C)C (configuration not stated) (Boc-VAPGVG-OH; configuration not given here)
inactive: UO-31 > 100 µM | OVCAR-3 > 100 µM | UACC-257 > 100 µM | HOP-62 > 100 µM | HL-60 > 100 µM | CAKI-1 > 100 µM | SNB-75 29.2 µM | K562 > 100 µM | IGROV-1 > 100 µM | MCF7 > 100 µM | UACC-62 > 100 µM | SN12C > 100 µM | SF-539 > 100 µM | M14 > 100 µM | OVCAR-5 > 100 µM | HCC 2998 77.3 µM | HCT-116 > 100 µM | ACHN > 100 µM
